Assays:
[1] = West German Offenlegungsschrift No. 2700036; cited from earlier work
S. mutans [2] = assay: (D) Further tests on adherence to teeth; assay type: cell-based, Streptococcus mutans; settings: for adherence of the cells: statement in words; for % coverage after 0.5 hours / % coverage after 4 hours: glass slide, 0.055 molar, Duncan procedure
Procedure: The extent to which cells of S. mutans adhere to teeth was investigated using a recognized model system. Solutions of the same substances as in (A) were made up, and the degree of deposition of suspended cells on to glass was studied using a "Magiscan" image analyser (Talyer et al., 1978 Praktischen Metallographie, Sonderbande 8: 433-442).
While recording the pH during the tests of (C), the adherence was monitored in the same way as in (B). The percentage coverage of a glass slide was determined at 0.5 and 4 hours for each solution, and the results treated by the Duncan procedure.

S. mutans [3] = assay: (C) Further tests on pH reduction; assay type: cell-based, Streptococcus mutans; settings: for Mean pH: 0.055 molar chlorodeoxy derivative, pooled data for 2, 3 and 4 hours, Duncan procedure
Procedure: Plain aqueous solutions were used and also solutions containing amino acids (protein hydrolysate) 1% w/v to approximate the buffering effect of natural saliva. Control experiments were effected using no saccharide in order to illustrate the endogenous metabolism of the organism. Each experiment was quadruplicated and was run at 37° C. The pH was measured at 0, 0.5, 1, 1.5,2, 3 and 4 hours.
Twelve sets of tests were carried out in the same way as described above at (A) but using solutions which were 0.055 molar in the respective chlorodeoxy derivative.
Solutions of the following were employed:
(i) Saline, negative control for endogenous metabolism
(ii) Sucrose, positive control
(iii) 6,1',6'-trichloro-6,1',6'-trideoxysucrose, compound no. 7.
(iv) Compound no. 7 plus sucrose.
(v) 1',6'-dichloro-1',6'-dideoxysucrose, compound no. 4
(vi) Compound no. 4 plus sucrose
(vii) 4,1',6'-trichloro-4,1',6'-trideoxygalactosucrose, Compound no. 5.
(viii) Compound no. 5 plus sucrose
(ix) 4,6,6'-trichloro-4,6,6'-trideoxygalactosucrose, Compound no. 6
(x) Compound no. 6 plus sucrose
(xi) 1'-chloro-1'-deoxysucrose, compound no. 1
(xii) Compound no. 1 plus sucrose
The acid production was monitored as before.

[4] = 0.5 hours, in the presence of sucrose

OC[C@H]1O[C@@](CO)(O[C@H]2O[C@H](CO)[C@H](Cl)[C@H](O)[C@H]2O)[C@@H](O)[C@@H]1O [compound 2, 4-chloro-4-deoxy-α-D-galactopyranosyl-β-D-fructofuranoside]
sweetness relative to sucrose [1]: do not possess such strong sweetening action

O[C@@H]1[C@@H](O)[C@@H](O[C@]2(CCl)O[C@H](CCl)[C@@H](O)[C@@H]2O)O[C@H](CCl)[C@H]1O [Compound no. 7, 6,1',6'-trichloro-6,1',6'-trideoxysucrose]
adherence of the cells (S. mutans [2]; [4]): most active compounds at 0.5 hours
adherence of the cells (S. mutans [2]; 4 hours): the most active
% coverage after 0.5 hours (S. mutans [2]): 29.7%
% coverage after 4 hours (S. mutans [2]): 54.2%
Mean pH (S. mutans [3]): 6.48
effect on acid production / pH (S. mutans [3]; statement in words, pooled 2, 3 and 4 hours): especially effective
sweetness relative to sucrose [1]: many times sweeter than sucrose

OC[C@H]1O[C@H](O[C@]2(CCl)O[C@H](CCl)[C@@H](O)[C@@H]2O)[C@H](O)[C@@H](O)[C@@H]1O [Compound no. 4, 1',6'-dichloro-1',6'-dideoxysucrose]
adherence of the cells (S. mutans [2]; [4]): falling in the sub-set g which includes sucrose itself
adherence of the cells (S. mutans [2]; 4 hours): did not reduce the adherence
% coverage after 0.5 hours (S. mutans [2]): 51.6%
% coverage after 4 hours (S. mutans [2]): 70.3%
Mean pH (S. mutans [3]): 5.48
sweetness relative to sucrose [1]: many times sweeter than sucrose

OC[C@H]1O[C@@](CCl)(O[C@H]2O[C@H](CO)[C@@H](O)[C@H](O)[C@H]2O)[C@@H](O)[C@@H]1O [Compound no. 1, 1'-chloro-1'-deoxysucrose]
adherence of the cells (S. mutans [2]; [4]): most active compounds at 0.5 hours
adherence of the cells (S. mutans [2]; 4 hours): the most active
% coverage after 0.5 hours (S. mutans [2]): 35.6%
% coverage after 4 hours (S. mutans [2]): 52.3%
Mean pH (S. mutans [3]): 5.09
sweetness relative to sucrose [1]: do not possess such strong sweetening action

OC[C@H]1O[C@@](CCl)(O[C@H]2O[C@H](CO)[C@H](Cl)[C@H](O)[C@H]2O)[C@@H](O)[C@@H]1O [compound 3, 4-chloro-4-deoxy-α-D-galactopyranosyl-1-chloro-1-deoxy-β-D-fructofuranoside]
sweetness relative to sucrose [1]: many times sweeter than sucrose

O[C@@H]1[C@@H](O)[C@@H](O[C@]2(CCl)O[C@H](CCl)[C@@H](O)[C@@H]2O)O[C@H](CCl)[C@H]1Cl [compound 9, 4,6,1',6'-tetrachloro-4,6,1',6'-tetradeoxysucrose]
sweetness relative to sucrose [1]: many times sweeter than sucrose

O[C@@H]1[C@@H](O)[C@@H](O[C@]2(CCl)O[C@H](CCl)[C@@H](O)[C@@H]2O)O[C@H](CCl)[C@@H]1Cl [compound 8, 4,6-dichloro-4,6-dideoxy-α-D-galactopyranosyl-1,6-dichloro-1,6-dideoxy-β-D-fructofuranoside]
sweetness relative to sucrose [1]: many times sweeter than sucrose

OC[C@@]1(O[C@H]2O[C@H](CCl)[C@H](Cl)[C@H](O)[C@H]2O)O[C@H](CCl)[C@@H](O)[C@@H]1O [Compound no. 6, 4,6-dichloro-4,6-dideoxy-α-D-galactopyranosyl-6-chloro-6-deoxy-β-D-fructofuranoside]
% coverage after 0.5 hours (S. mutans [2]): 51.6%
% coverage after 4 hours (S. mutans [2]): 70.8%
Mean pH (S. mutans [3]): 5.20
sweetness relative to sucrose [1]: do not possess such strong sweetening action
